# According to paper PMC6471201, “Discovery of Indoleamine 2,3-Dioxygenase 1 (IDO-1) Inhibitors Based on Ortho-Naphthaquinone-Containing Natural Product” (Molecules, 2019):
# What was measured:
# IDO-1 = system: IDO-1; parameters: method as in PMID 30108982; conditions: known inhibitors, Figure 1; cited from earlier work
# hIDO-1 [1] = molecular target: T1, hIDO-1 (Homo sapiens, UniProt P14902); assay: hIDO-1 enzymatic assay; assay type: biochemical; conditions: mean ± SE of two independent experiments; for inhibition at 20 µM: 20 µM compound, read-out: Inhibitory Rate at 20 µM (enzymatic); for IC50: rhIDO-1, L-tryptophan substrate, 37 °C 30 min
# hIDO-1 [2] = molecular target: T1, hIDO-1; assay: Cell-based assay of IDO-1 activity in HEK 293 cells transfected with pcDNA3.1-hIDO-1; parameters: expressed in transfected cells; host or cells: HEK 293; conditions: HEK 293-hIDO-1 cells, 12-h incubation; mean ± SE of two independent experiments; read-out: Cellular IC50
# T1 sequence (P14902 whole entry): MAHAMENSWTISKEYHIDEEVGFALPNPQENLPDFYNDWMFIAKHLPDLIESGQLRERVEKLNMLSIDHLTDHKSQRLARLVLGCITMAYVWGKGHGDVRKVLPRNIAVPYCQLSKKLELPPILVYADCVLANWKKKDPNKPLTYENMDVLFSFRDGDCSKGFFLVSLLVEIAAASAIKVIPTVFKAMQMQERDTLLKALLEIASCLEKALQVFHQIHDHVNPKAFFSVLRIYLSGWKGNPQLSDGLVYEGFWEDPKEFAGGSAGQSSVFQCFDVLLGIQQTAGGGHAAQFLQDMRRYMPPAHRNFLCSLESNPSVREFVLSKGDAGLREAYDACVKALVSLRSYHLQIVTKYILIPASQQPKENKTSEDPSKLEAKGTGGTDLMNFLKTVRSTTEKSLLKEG
inhibition at 20 µM (hIDO-1 [1]) [%],IC50 (hIDO-1 [1]) [µM],SMILES,further results
,,Cc1cccc2c3c(ccc12)C1=C(C(=O)C3=O)C(C)CO1 (centres unmarked) [Compound 4],IC50 (IDO-1): 1.3 µM
,,Cc1c(-c2c(C)c(O)c3ccccc3c2O)oc2c1C(=O)C(=O)c1c-2ccc2c1CCCC2(C)C [Compound 5],IC50 (IDO-1): 4.1 µM
23.1 ± 1.6,> 20,"Cc1coc2c1C(=O)C(=O)c1c-2ccc2c1CCCC2(C)C [Compound 6, Tan-IIA, reference compound]",
,4.72 ± 0.3,CCC(=O)OC1CCC(C)(C)c2ccc3c(c21)C(=O)C(=O)c1c(C)coc1-3 (centres unmarked) [Compound 7b],
29.3 ± 2.2,,CCC(=O)OC1CCC(C)(C)c2ccc3c(c21)C(=O)C(=O)c1c-3oc(-c2ccsc2)c1C (centres unmarked) [Compound 7c],
21.5 ± 1.1,,CCC(=O)OC1CCC(C)(C)c2ccc3c(c21)C(=O)C(=O)c1c-3oc(-c2ccccc2)c1C (centres unmarked) [Compound 7d],
,7.47 ± 3.58,CCOC(=O)/C=C/C(=O)OC1CCC(C)(C)c2ccc3c(c21)C(=O)C(=O)c1c(C)coc1-3 (centres unmarked) [Compound 7e],
,2.74 ± 0.1,Cc1coc2c1C(=O)C(=O)c1c-2ccc2c1C(OC(=O)CO)CCC2(C)C (centres unmarked) [Compound 7f],
,7.05 ± 2.46,Cc1coc2c1C(=O)C(=O)c1c-2ccc2c1C(OC(=O)C1CC1)CCC2(C)C (centres unmarked) [Compound 7g],
48 ± 3.2,,Cc1coc2c1C(=O)C(=O)c1c-2ccc2c1C(OC(=O)C1CCCCC1)CCC2(C)C (centres unmarked) [Compound 7h],
54.5 ± 2.3,,Cc1coc2c1C(=O)C(=O)c1c-2ccc2c1C(OC(=O)c1ccccc1)CCC2(C)C (centres unmarked) [Compound 7i],
60.4 ± 3.9,,Cc1coc2c1C(=O)C(=O)c1c-2ccc2c1C(OC(=O)c1cccs1)CCC2(C)C (centres unmarked) [Compound 7j],
,4.6 ± 2.81,Cc1coc2c1C(=O)C(=O)c1c-2ccc2c1C(OC(=O)c1ccoc1)CCC2(C)C (centres unmarked) [Compound 7k],
,5.71 ± 0.47,Cc1coc2c1C(=O)C(=O)c1c-2ccc2c1C(OC(=O)c1nccs1)CCC2(C)C (centres unmarked) [Compound 7l],
,4.96 ± 2.02,Cc1coc2c1C(=O)C(=O)c1c-2ccc2c1C(OC(=O)c1cnccn1)CCC2(C)C (centres unmarked) [Compound 7m],
,2.83 ± 0.12,Cc1coc2c1C(=O)C(=O)c1c-2ccc2c1C(O)CCC2(C)C (centres unmarked) [Compound 8],
61.2 ± 2.1,,"Cc1coc2c1C(=O)C(=O)c1c-2ccc2c1C=CCC2(C)C [Compound 9, 1,6,6-trimethyl-6,7-dihydrophenanthro[1,2-b]furan-10,11-dione]",IC50 (IDO-1): 4.68 µM; IC50 (hIDO-1 [2]): > 10 µM
,3.1 ± 1.02,"Cc1coc2c1C(=O)C(=O)c1c-2ccc2c1C=CC(O)C2(C)C (centres unmarked) [Compound 10, 7-hydroxy-1,6,6-trimethyl-6,7-dihydrophenanthro[1,2-b]furan-10,11-dione]",IC50 (hIDO-1 [2]): > 10 µM; melting point: 185.2 to 188.5 °C
,0.84 ± 0.26,"Cc1coc2c1C(=O)C(=O)c1c-2ccc2c1C=CC(=O)C2(C)C [Compound 11, 1,6,6-trimethylphenanthro[1,2-b]furan-7,10,11(6H)-trione]",IC50 (hIDO-1 [2]): > 10 µM; melting point: 261.2 to 262.8 °C
,0.37 ± 0.02,"CC1(C)C(=O)C=Cc2c1ccc1c2C(=O)C(=O)c2c(CO)coc2-1 [Compound 12, 1-(hydroxymethyl)-6,6-dimethylphenanthro[1,2-b]furan-7,10,11(6H)-trione]",IC50 (hIDO-1 [2]): 3.85 ± 0.86 µM
52.7 ± 2.5,~20,"Cc1coc2c1C(=O)C(=O)c1c-2ccc2c1C(=O)C=CC2(C)C [Compound 14, 1,6,6-trimethylphenanthro[1,2-b]furan-9,10,11(6H)-trione]",IC50 (hIDO-1 [2]): > 10 µM; melting point: 158.3 to 160.8 °C
68 ± 8.6,~20,"CC1(C)C=CC(=O)c2c1ccc1c2C(=O)C(=O)c2c(CO)coc2-1 [Compound 15, 1-(hydroxymethyl)-6,6-dimethylphenanthro[1,2-b]furan-9,10,11(6H)-trione]",

SMILES,inhibition at 20 µM (hIDO-1 [1]) [%],IC50 (hIDO-1 [1]) [µM],further results
CC(=O)OC1CCC(C)(C)c2ccc3c(c21)C(=O)C(=O)c1c(C)coc1-3 (centres unmarked) [Compound 7a],,3.72 ± 0.45,
